Measurements as given in ChEMBL document CHEMBL3045757, “Common binding requirements of PPAR-// pan agonists: quantitative structureactivity relationship analysis of indanylacetic acid derivatives carrying 4-thiazolyl-phenoxy tail group” (Med Chem Res, 2012).

Biological target: T1, Peroxisome proliferator-activated receptor gamma (Homo sapiens, UniProt P37231)
T1 sequence (P37231 whole entry): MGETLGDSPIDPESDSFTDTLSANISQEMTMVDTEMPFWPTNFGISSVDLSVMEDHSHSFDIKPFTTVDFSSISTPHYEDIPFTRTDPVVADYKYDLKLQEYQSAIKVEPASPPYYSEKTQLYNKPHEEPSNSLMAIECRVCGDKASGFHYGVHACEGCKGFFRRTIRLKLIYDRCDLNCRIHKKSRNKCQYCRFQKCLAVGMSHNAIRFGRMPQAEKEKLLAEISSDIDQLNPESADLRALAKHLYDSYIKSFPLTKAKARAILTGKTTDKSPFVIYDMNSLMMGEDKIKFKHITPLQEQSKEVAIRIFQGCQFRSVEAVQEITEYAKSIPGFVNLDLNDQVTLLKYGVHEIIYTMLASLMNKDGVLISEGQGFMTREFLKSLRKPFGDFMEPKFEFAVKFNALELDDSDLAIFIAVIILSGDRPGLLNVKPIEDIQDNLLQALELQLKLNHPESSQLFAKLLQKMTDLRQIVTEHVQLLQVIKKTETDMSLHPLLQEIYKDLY
Experiment: Agonist activity at Homo sapiens (human) PPARgamma expressed in mouse 3T3-L1 cells incubated for 2 days followed by compound wash out measured after 4 days by insulin receptor binding assay
Assay type: cell-based

## CCOc1nc(-c2ccc(OCCCOc3ccc4c(c3)CC[C@H]4CC(=O)O)c(OC)c2)sc1CC
  EC50: 178 nM
